The source made the active and inactive calls.
Assays:
[1] = molecular target: T1, Polyadenylate-binding protein 1 (Homo sapiens, UniProt P11940); test: PABP1 MLLE–PAM2 interaction inhibitors, dose response, miRNA deadenylation inhibitor project, biochemical, fluorescence polarization, Cy5-PAM2 peptide, secondary (AID 602260); assay type: functional; details: read-out: IC50_Mean
[2] = molecular target: T1, Polyadenylate-binding protein 1; test: PABP1 MLLE–PAM2 binding inhibitor potency, dose response, biochemical, fluorescence polarization, FITC-PAM2 peptide (AID 602259); assay type: functional; details: read-out: IC50_Mean
[3] = growth suppression of PTEN-null colon cells, dose response, cell-based, HCT116 PTEN knockout (AID 1047); assay type: functional;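 also: HCT116 colon tumor cells with PTEN knocked out; cells exposed to compound for 60 hours before readout; potency for loss of cell viability measured by luminescence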
[4] = growth suppression of beta-catenin-knockout colon cells, dose response, cell-based, HCT116, human colon tumor (AID 1045); assay type: functional;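 also: HCT116 colon tumor cells with beta catenin knocked out; cells exposed to compound for 60 hours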
[5] = molecular target: Nonstructural protein 1 (Influenza A virus, UniProt Q194T2); assay type: functional, Influenza A virus (A/California/07/2009(H1N1))
[6] = molecular target: T2, Ubiquitin-conjugating enzyme E2 N (Homo sapiens, UniProt P61088); assay type: functional;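 also: Dose-response confirmation in a TR-FRET assay detecting UBC13-driven polyubiquitin chain formation, inhibition measured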
T2 sequence (P61088 whole entry): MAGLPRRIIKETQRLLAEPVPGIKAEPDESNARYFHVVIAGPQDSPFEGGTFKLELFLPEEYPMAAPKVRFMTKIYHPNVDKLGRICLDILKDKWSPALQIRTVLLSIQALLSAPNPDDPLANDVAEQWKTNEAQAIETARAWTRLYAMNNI

[7] = HEp-2 cell cytotoxicity, dose response, cytotoxicity control for RSV inhibitor project, HTS (AID 2410); assay type: functional; details: human respiratory syncytial virus
[8] = system: INS1; test: beta cell apoptosis inhibitors, cytokine rescue, dose response, luminescence, retest (AID 449756); assay type: functional, cell-based; details: Rattus norvegicus;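 also: cell death triggered by IL-1 beta plus TNF-alpha plus IFN-gamma mixture; protective hits raise ATP signal compared with cytokine alone wells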
[9] = Shn3 3'UTR reporter inhibitors, dose response, cell-based, Clone20 osteoblasts, firefly luciferase, cherry-picked (AID 624132); assay type: functional;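 also: firefly luciferase luminescence from reporter carrying the Shn3 3'UTR in osteoblasts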
[10] = HepG2 cell cytotoxicity, dose response, cytotoxicity control for Shn3 inhibitor project, CellTiter-Glo, cherry-picked (AID 624134); assay type: functional, cell-based
[11] = control 3'UTR Renilla luciferase suppression, dose response, counter-screen for Shn3 inhibitor project, cell-based, Clone20-Shn3RL, cherry-picked (AID 624133); assay type: functional
[12] = molecular target: Large T antigen (Simian virus 40, UniProt P03070); assay type: functional, Betapolyomavirus macacae;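 also: Confirmatory-stage PubChem screen for compounds that inhibit SV40 T antigen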
[13] = inhibitors of intracellular T. cruzi replication, confirmation, NIH3T3 host cells, beta-gal luminescence (AID 2044); assay type: functional, cell-based;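 also: intracellular parasites grown in NIH/3T3 mouse fibroblasts as host cells; luminescent beta-galactosidase reporter signal from transgenic T. cruzi replicating inside host cells; inhibitors lower the luminescence signal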
[14] = cytotoxicity toward NIH3T3 fibroblasts, dose response, counter-screen, cell-based, ATP luminescence, mouse fibroblasts (AID 2010); assay type: functional;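 also: cells exposed to compound for about 90 hours before reading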
[15] = molecular target: T3, Heat shock factor protein 1 (Mus musculus, UniProt P38532); test: HSF1 potentiators in luciferase reporter cells, confirmation, cell-based, NIH3T3, luminescence, dose retest (AID 435004); assay type: functional;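 also: stress induced by proteasome inhibitor MG132 added 30 min after compound; luciferase reporter driven by HSF1 response element in NIH3T3 cells; actives raise luminescence as potentiators of the MG132 stress response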
T3 sequence (P38532 whole entry): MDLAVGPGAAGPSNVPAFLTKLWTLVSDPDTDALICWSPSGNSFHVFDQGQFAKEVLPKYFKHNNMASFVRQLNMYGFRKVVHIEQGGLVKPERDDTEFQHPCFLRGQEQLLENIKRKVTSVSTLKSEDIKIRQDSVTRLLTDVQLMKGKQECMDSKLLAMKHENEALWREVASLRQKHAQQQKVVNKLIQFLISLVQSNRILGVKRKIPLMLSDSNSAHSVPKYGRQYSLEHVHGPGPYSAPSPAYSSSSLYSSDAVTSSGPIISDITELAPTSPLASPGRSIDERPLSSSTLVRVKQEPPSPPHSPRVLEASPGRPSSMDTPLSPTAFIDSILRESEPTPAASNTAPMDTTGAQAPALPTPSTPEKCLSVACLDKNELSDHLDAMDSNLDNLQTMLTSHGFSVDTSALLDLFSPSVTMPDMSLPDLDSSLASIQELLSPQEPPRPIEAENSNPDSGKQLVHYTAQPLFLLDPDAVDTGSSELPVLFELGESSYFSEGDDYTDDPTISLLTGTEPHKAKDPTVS

[16] = Luminescence Cell-Based Dose Retest to Confirm Inhibitors of Cancer Stem Cells. [Related pubchem assays (depositor defined):AID2717, AID2721]; assay type: functional; details: Homo sapiens
[17] = system: H9c2; test: cells; assay type: functional, cell-based; details: Rattus norvegicus, H9c2, Myocardium;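 also: confirmatory concentration-response retest of ultra-high-throughput screening hits for modulation of myocardial damage; cell death induced by hydrogen peroxide oxidative stress; compound pretreatment for 60 min then peroxide exposure for 2 h; potency is for protecting the cells against peroxide damage rather than for killing them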

Sequence of Nonstructural protein 1 (Q194T2 whole entry): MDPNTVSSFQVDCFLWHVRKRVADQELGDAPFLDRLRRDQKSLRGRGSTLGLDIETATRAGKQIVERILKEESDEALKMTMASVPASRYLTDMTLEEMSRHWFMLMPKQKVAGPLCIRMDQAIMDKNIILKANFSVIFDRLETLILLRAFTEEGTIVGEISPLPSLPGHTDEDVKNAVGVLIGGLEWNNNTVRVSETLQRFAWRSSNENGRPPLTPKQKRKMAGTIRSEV
T1 sequence (P11940 whole entry): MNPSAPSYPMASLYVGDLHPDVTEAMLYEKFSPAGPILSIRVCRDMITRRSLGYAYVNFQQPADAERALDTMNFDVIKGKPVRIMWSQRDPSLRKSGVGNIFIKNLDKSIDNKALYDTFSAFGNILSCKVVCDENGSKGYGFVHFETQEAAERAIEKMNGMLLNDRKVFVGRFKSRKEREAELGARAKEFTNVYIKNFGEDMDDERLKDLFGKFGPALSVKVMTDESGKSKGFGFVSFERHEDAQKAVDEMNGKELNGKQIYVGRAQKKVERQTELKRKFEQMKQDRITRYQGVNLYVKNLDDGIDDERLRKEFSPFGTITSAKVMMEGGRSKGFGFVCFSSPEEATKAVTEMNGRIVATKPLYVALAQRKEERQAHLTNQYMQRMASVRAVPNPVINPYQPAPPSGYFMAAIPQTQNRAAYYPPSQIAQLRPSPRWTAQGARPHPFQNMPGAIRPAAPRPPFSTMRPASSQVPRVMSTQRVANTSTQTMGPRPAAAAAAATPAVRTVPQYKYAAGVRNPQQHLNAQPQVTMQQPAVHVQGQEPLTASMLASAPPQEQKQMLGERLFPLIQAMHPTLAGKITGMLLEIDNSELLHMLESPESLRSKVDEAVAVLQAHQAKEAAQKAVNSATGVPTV
Sequence of Large T antigen (P03070 whole entry): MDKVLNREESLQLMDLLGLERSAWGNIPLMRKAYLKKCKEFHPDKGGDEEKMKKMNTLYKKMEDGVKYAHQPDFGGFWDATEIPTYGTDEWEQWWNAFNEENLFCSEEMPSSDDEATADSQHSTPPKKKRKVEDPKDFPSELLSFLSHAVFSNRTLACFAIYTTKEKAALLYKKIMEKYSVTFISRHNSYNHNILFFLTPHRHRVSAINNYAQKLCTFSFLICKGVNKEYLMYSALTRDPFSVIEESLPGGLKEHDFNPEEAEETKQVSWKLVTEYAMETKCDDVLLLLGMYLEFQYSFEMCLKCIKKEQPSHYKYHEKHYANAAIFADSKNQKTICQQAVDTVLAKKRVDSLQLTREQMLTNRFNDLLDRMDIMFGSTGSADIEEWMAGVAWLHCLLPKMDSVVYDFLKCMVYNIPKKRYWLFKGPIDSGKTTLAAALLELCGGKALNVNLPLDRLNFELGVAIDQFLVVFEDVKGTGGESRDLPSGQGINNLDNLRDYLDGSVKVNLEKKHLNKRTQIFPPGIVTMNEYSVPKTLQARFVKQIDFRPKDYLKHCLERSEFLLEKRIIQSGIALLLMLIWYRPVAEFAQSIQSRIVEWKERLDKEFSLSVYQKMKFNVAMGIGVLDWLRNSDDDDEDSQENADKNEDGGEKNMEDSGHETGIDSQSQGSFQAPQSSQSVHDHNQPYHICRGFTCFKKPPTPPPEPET

In the case of `COc1cc(NC(S)=Nc2ccc(OC(F)F)cc2)cc(OC)c1`, the IC50 [1] is reported as > 66 µM (inactive) and the IC50 [2] is reported as > 66 µM (inactive).

With `O=C(O)CSc1c2ccccc2cc2ccccc12` the IC50 [1] was > 66 µM (inactive) and the IC50 [2] was > 66 µM (inactive).

With `O=C(CNCCC1=CCCCC1)Nc1ccc(N2CCCCCC2)cc1` the EC50 [3] was 15.3 µM (active), the EC50 [4] was 12.3 µM (active) and the IC50 [5] was 13.8 µM (active).

In the case of `CCCCCCCCC(=O)N1CCN(c2cc3c(cc2F)c(=O)c(C(=O)O)cn3CC)CC1`, the IC50 [6] is reported as > 20 µM (inactive).

With `COC(=O)c1sccc1N=C(S)Nc1cc(C)cc(C)c1` the IC50 [1] was > 66 µM (inactive) and the IC50 [2] was > 66 µM (inactive).

In the case of `O=C(CCC(=O)N1CCOc2ccc(Cl)cc21)NCCCN1CCN(c2ccccc2F)CC1`, the IC50 [6] is reported as > 20 µM (inactive).

With `CCOC(=O)c1ccc(N2C(=O)CC(Sc3ncccn3)C2=O)cc1` (centres undefined) the IC50 [1] was > 66 µM (inactive) and the IC50 [2] was > 66 µM (inactive).

For `CCOc1cccc2sc(N(CCCN(C)C)C(=O)c3ccc(S(=O)(=O)N(CC)Cc4ccccc4)cc3)nc12`, the CC50 [7] was 27.7 µM (active) and the IC50 [6] was > 20 µM (inactive).

With `CN(C)S(=O)(=O)c1ccc(Oc2ccc(S(=O)(=O)N(C)C)cc2)cc1` the AC50 [8] was 6.33 µM (active), the AC50 [9] was 3.04 µM (active) and the AC50 [10] was 53.5 µM (active). The AC50 [11] was 12.1 µM (active).

For `N#Cc1c(O)nc(S)nc1-c1cccc(Cl)c1`, the IC50 [1] was > 66 µM (inactive) and the IC50 [2] was > 66 µM (inactive).

With `CCSc1nc(N2CCCCC2)c2c(c1C#N)CCCC2` the IC50 [6] was > 20 µM (inactive).

With `NCCCC[C@@H]1NC(=O)c2cc([N+](=O)[O-])cc(I)c2SC[C@@H](C(N)=O)NC(=O)[C@H](Cc2ccc(O)cc2)NC1=O` the IC50 [6] was > 20 µM (inactive).

With `Cc1c(N2C(=O)S/C(=C3\C(=O)Nc4ccccc43)C2=O)c(=O)n(-c2ccccc2)n1C` the IC50 [1] was > 66 µM (inactive) and the IC50 [2] was > 66 µM (inactive).

In the case of `Cc1ccc(C(=O)Nc2nc(-c3ccccn3)cs2)cc1S(=O)(=O)N1CCOCC1`, the IC50 [5] is reported as 7.81 µM (active), the AC50 [8] is reported as 1.36 µM (active) and the AC50 [9] is reported as 0.838 µM (active). The AC50 [10] was > 70 µM (inactive) and the AC50 [11] was 0.976 µM (active).

For `Cn1c(C(=O)NCCCN2CCN(c3cccc(Cl)c3)CC2)cc2c(=O)n(C)c3ccccc3c21`, the IC50 [6] was > 20 µM (inactive).

In the case of `O=C(CSC1=NS(=O)(=O)c2ccccc21)Nc1ccccc1`, the IC50 [12] is reported as 12.2 µM (active) and the IC50 [6] is reported as > 20 µM (inactive).

In the case of `COc1ccc(CCNCc2cc(C)n(-c3ccc(OC)cc3)c2C)cc1`, the EC50 [13] is reported as 1.85 µM (active), the EC50 [14] is reported as > 60 µM (not active) and the IC50 [5] is reported as 44.7 µM (active). The EC50 [15] was > 260 µM (inactive).

In the case of `COc1ccc(N=NC2C(=O)N(c3ccccc3)N=C2C)cc1` (centres undefined), the IC50 [5] is reported as 27.1 µM (active).

For `CCN(CC)CCNC(=O)c1ccc(NC(=O)/C=C/c2ccc3ccccc3n2)cc1`, the IC50 [5] was > 100 µM (active).

With `Cn1c(SCc2cccc(Br)c2)nc2ccccc2c1=O` the AC50 [9] was 7.68 µM (active), the AC50 [10] was 59.8 µM (active) and the AC50 [11] was 3.47 µM (active).

With `Cc1ccc(O)c(CNCCNCc2cc(C)ccc2O)c1` the IC50 [6] was > 20 µM (inactive).

In the case of `CCC(C)(C)NC(=O)CN(C(=O)c1snc(C(N)=O)c1N)c1ccc2nc(C)sc2c1`, the IC50 [6] is reported as > 20 µM (inactive).

In the case of `COC(=O)C1=C(C)N(Cc2ccccc2)C(NCCc2c[nH]c3ccccc23)=N[C@H]1c1cccc(F)c1`, the AC50 [16] is reported as 6.45 µM (active) and the IC50 [6] is reported as > 20 µM (inactive).

With `CCOc1ccccc1C(=O)N/N=C/c1cccc2cccnc12` the IC50 [5] was 32.3 µM (active) and the IC50 [17] was 12.4 µM (active).

With `Cc1ccc(S(=O)(=O)N2[C@H](c3cccc(Cl)c3)CC(=O)[C@@H]3CN(S(=O)(=O)c4ccccc4C)[C@H](c4ccc(Cl)cc4)C[C@@H]32)cc1` the AC50 [9] was 0.289 µM (active), the AC50 [10] was 5.61 µM (active) and the AC50 [11] was 0.62 µM (active).

In the case of `CC=CCn1c(SCc2ccccc2)nc2c1c(=O)[nH]c(=O)n2C`, the IC50 [1] is reported as > 66 µM (inactive) and the IC50 [2] is reported as > 66 µM (inactive).

For `Cc1c(NC(=S)N/N=C\c2ccccc2O)c(=O)n(-c2ccccc2)n1C`, the IC50 [5] was 6.13 µM (active).

Reference: ChEMBL document CHEMBL1201862, “PubChem BioAssay data set” (2004)
